This is an account of results in patent US20250099548A1, “PHARMACEUTICAL COMPOSITION FOR PREVENTING OR TREATING DEGENERATIVE BRAIN DISEASES, CONTAINING GLUCAGON-LIKE PEPTIDE-1 AND INTERLEUKIN-1 RECEPTOR ANTAGONIST” (GI INNOVATION, INC., priority 2022, published 2025).

Test [1] deals with Tg-APP/PS1 mice. Kind of test: Novel object recognition test. It counts as in vivo, mouse. As to conditions: Example 1, 1.2 mg/kg intraperitoneal, 4 times for 2 weeks from 6.5 months of age. The procedure:
(§1) The test substance was prepared by diluting GI210B1 obtained in Preparation Example 1 in saline, and it was intraperitoneally administered to 6.5-month-old Tg-APP/PS1 mice at a concentration of 1.2 mg/kg a total of 4 times for 2 weeks (FIG. 10).
(§2) In the Tg-APP/PS1 mice intraperitoneally administered with GI210B1 at 6.5 months of age in Example 1.1 above, behavioral characteristics of cognitive function were evaluated at 7.5 to 8.0 months of age. In order to evaluate the behavioral characteristics of cognitive function, a novel object recognition test (NOR test), a passive avoidance test, and a water maze test were performed. At that time, the three experiments for behavioral evaluation were performed according to a method known in the art.
All behavior evaluations were recorded with a computerized video-tracking system (SMART; Panlab S. I., Barcelona, Spain) and a webcam recording system (HD Webcam C210, Logitech, Newark, CA, USA). At that time, the background sound in the test room was set to 65 dB of white noise, and all behavioral tests were performed during the photoperiod (9 a.m. to 3 p.m.).
Specifically, the mice prepared in Example 1.1 above were repeatedly exposed to two objects of the same shape twice at intervals of 10 minutes in an open field (familiarization). […] In addition, two hours after the habituation of the mice was completed, the mice were exposed to a novel object and an old object, and then the time taken for the mouse to recognize each object was measured [2-hour-NOR (novel object recognition) experiment]. Thereafter, the mice returned to their home cage, and then the location of one of the just-exposed objects was moved, and then object distinguishment and recognition time were measured [2-hour-NLR (novel position recognition) experiment]. Thereafter, 24 hours after the habituation of the mice was completed, the mice were exposed to another object and an old object, and then the time taken for the mouse to approach each object was measured (24-hour-NOR experiment). […]

The target in test [2] is T1, IL-1Ra (interleukin-1 receptor alpha) (Homo sapiens, UniProt P14778).
T1 construct: purchased R&D systems
T1 sequence (P14778 18-569): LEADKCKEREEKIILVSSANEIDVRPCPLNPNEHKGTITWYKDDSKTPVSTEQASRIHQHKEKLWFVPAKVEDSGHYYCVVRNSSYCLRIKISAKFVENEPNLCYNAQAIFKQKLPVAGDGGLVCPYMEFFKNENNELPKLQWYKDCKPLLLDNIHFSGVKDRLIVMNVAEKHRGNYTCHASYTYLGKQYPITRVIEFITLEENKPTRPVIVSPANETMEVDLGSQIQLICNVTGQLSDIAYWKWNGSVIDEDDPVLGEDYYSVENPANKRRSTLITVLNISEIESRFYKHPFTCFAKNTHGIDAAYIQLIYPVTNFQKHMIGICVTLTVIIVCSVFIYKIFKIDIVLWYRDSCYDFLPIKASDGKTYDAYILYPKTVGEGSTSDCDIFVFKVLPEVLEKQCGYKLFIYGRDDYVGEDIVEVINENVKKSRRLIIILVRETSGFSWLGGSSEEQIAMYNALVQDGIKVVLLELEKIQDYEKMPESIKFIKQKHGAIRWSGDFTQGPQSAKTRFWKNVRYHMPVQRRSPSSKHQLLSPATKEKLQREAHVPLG
Kind of test: Binding ability of GI210B1 measured with Octet RED 384 (AR2G biosensor). The note with it: IL-1Ra 1 μg/ml coated on biosensor; GI210B1 15.6 nM to 1,000 nM. As to the method:
The binding ability of GI210B1, which was obtained through the method of Preparation Example 1 above, to IL-1Ra ([…]) was measured. At that time, the binding ability to IL-1Ra was confirmed using Octet RED 384 (ForteBio). The AR2G (amine reactive 2nd generation) biosensor was used by immersion in 1× kinetic buffer for 10 minutes. IL-1Ra (R&D systems) was prepared at a concentration of 1 μg/ml and coated on the biosensor, and the binding ability was confirmed at each concentration by serially diluting GI210B1 from 15.6 nM to 1,000 nM.
For orientation: BLI is a label-free optical method that tracks binding on a fibre tip over time.

Test [3] has as its system Tg-APP/PS1 mice. Put plainly: DCX immunochemical staining of hippocampal DG region. The note with it: Example 1; GI210B1 1.2 mg/kg intraperitoneal, 4 times for 2 weeks. In kind it is in vivo, mouse. From the text: DCX (doublecortin) is continuously expressed during the 2-3 weeks during which immature neurons mature, and is expressed in […]. For this reason, DCX is used as a marker of neurogenesis, indicating the degree of neuronal differentiation and after the metaphase of newly generated neurons.
In order to confirm the effect of GI210B1 on the decreased neurogenesis in the DG (dentate gyrus) region of the hippocampus of Tg mice, the Tg-APP/PS1 mice administered with GI210B1 (Tg+GI210B1), the wild type mice (WT) as a normal group, and the Tg-APP/PS1 mice (Tg or Tg+Veh) as a control group were sacrificed, and then the brain tissue was extracted, and the DG region of the hippocampus was stained with DCX.
In the same manner as in Example 1.4.2 above, the mice from each group were sacrificed, and then the brain tissue was extracted, and the DG region of the hippocampus was stained with DCX.

The subject of test [4] is Tg-APP/PS1 mice. Kind of test: Water maze test. In kind it is in vivo, mouse. As to conditions: Example 1. The procedure:
as §1, §2
The water maze test is a cognitive behavior evaluation experiment conducted to measure spatial perception learning ability and memory dependent on the hippocampus area of the brain. […]
In addition, a hidden platform test was conducted on the 6th day. The hidden platform of the water maze was removed, and then the mouse was placed in the water maze and the location the mouse stayed for 60 seconds was recorded. At that time, the time and location that the mouse stayed in the four quadrants of the water maze for 60 seconds in the absence of a hidden platform were recorded. […]

Turning to “GI210B1: fusion protein dimer comprising GLP-1 (SEQ ID NO: 2), IgG4 Fc domain and IL-1Ra; SEQ ID NO: 10”, in test [1], the “recognition of a novel object, 24-hour-NOR experiment” value was “recognized a novel object for a longer time at a similar level to the normal group (WT)” and the “time taken for the mouse to recognize an object whose location was changed, 2-hour-NLR experiment” value was “increased similar to the normal group”. Moreover, the “time taken for the mouse to recognize a novel object, 2-hour-NOR experiment” value in test [1] (tested at 7.5 to 8.0 months) is given as “increased similar to the normal group (WT)”. In test [2], the “Ka(Association rate, 1/Ms)” value turned out to be 22000 M⁻¹ s⁻¹ and the “Kd(dissociation rate, 1/s)” value came out at 0.0093 s⁻¹. Also, in test [3], the “number of DCX positive cells in the DG region of the hippocampus” value is “increased compared to the control group (Tg), and was recovered to a level similar to that of the normal group (WT)”. Moreover, in test [4] (6th day, platform removed, 60 seconds), the “time in target quadrant, hidden platform test” value is on record as “recognized for a longer time compared to the control group (Tg+Veh)”. Moreover, the “time taken for the mouse to learn and find the location of the hidden platform (spatial perception training)” value in test [4] (training twice a day for 5 days, 1.2 mg/kg intraperitoneal, 4 times for 2 weeks) is given as “somewhat slower than that of the normal group, but faster than that of the control group (Tg+Veh)”.
